Test results from US20230125749A1, “COMPOSITION CONTAINING PEPTIDE OR PEPTIDE COMPOUND AS ACTIVE INGREDIENT, AND MEDICAL USE THEREFOR” (AJOU UNIVERSITY INDUSTRY-ACADEMIC COOPERATION FOUNDATION, priority 2019, published 2023).

Test system: intraperitoneal macrophages
Assay: Fluorescence-labeled cells among intraperitoneal macrophages after oral administration of fluorescence-conjugated peptides to normal mice
Assay type: in vivo, mouse
Conditions: measured after 48 and 72 hours, FIG. 10
Method: Furthermore, peptides 1, 2, and 4 were orally administered to normal mice after conjugation with each different fluorescence, and the frequency of fluorescence-labeled cells was measured among intraperitoneal macrophages after 48 and 72 hours.

LICPEKYCNKVHT [P1]
time for which the fluorescence-labeled peptide was maintained among intraperitoneal macrophages: up to 72 hours
